ChEMBL document CHEMBL3046676, “Baseline susceptibility of Bemisia tabaci (Genn.) biotype B in southern Florida to cyantraniliprole” (2013)

Assays:
Format in all cases: functional
Bemisia tabaci [1] = test: Resistance ratio of LC50 for field-collected population of Bemisia tabaci (sweet potato whitefly) biotype B GCC-AM ST (F4-5) adults to LC50 for laboratory strain of Bemisia tabaci (sweet potato whitefly) biotype B adults
Bemisia tabaci [2] = test: Resistance ratio of LC50 for field-collected population of Bemisia tabaci (sweet potato whitefly) biotype B GCC-AM (p) (F2) adults to LC50 for laboratory strain of Bemisia tabaci (sweet potato whitefly) biotype B adults
Bemisia tabaci [3] = test: Resistance ratio of LC50 for field-collected population of Bemisia tabaci (sweet potato whitefly) biotype B Cortez #1 (F4) adults to LC50 for laboratory strain of Bemisia tabaci (sweet potato whitefly) biotype B adults
Bemisia tabaci [4] = test: Insecticidal activity against laboratory strain of Bemisia tabaci (sweet potato whitefly) biotype B adults infested in cotton seedlings cut stem assessed as mortality measured after 5 days by stabilization treatment based systemic uptake bioassay
Bemisia tabaci [5] = test: Insecticidal activity against field-collected population of Bemisia tabaci (sweet potato whitefly) biotype B GCC-AM ST (F4-5) adults infested in cotton seedlings cut stem assessed as mortality measured after 5 days by stabilization treatment based systemic uptake bioassay
Bemisia tabaci [6] = test: Insecticidal activity against field-collected population of Bemisia tabaci (sweet potato whitefly) biotype B GCC-AM (p) (F2) adults infested in cotton seedlings cut stem assessed as mortality measured after 5 days by stabilization treatment based systemic uptake bioassay
Bemisia tabaci [7] = test: Insecticidal activity against field-collected population of Bemisia tabaci (sweet potato whitefly) biotype B Cortez #1 (F4) adults infested in cotton seedlings cut stem assessed as mortality measured after 5 days by stabilization treatment based systemic uptake bioassay
Bemisia tabaci [8] = test: Insecticidal activity against field-collected population of Bemisia tabaci (sweet potato whitefly) biotype B Devil's garden KAC (F3) eggs in cotton seedlings cut stem assessed as mortality measured after 14 days by stabilization treatment based systemic uptake bioassay
Bemisia tabaci [9] = test: Insecticidal activity against field-collected population of Bemisia tabaci (sweet potato whitefly) biotype B Homestead #1 (F4) eggs in cotton seedlings cut stem assessed as mortality measured after 14 days by stabilization treatment based systemic uptake bioassay
Bemisia tabaci [10] = test: Insecticidal activity against field-collected population of Bemisia tabaci (sweet potato whitefly) biotype B GCC-EV-Tom (F4) eggs in cotton seedlings cut stem assessed as mortality measured after 14 days by stabilization treatment based systemic uptake bioassay
Bemisia tabaci [11] = test: Insecticidal activity against field-collected population of Bemisia tabaci (sweet potato whitefly) biotype B Parrish (F3) eggs in cotton seedlings cut stem assessed as mortality measured after 14 days by stabilization treatment based systemic uptake bioassay
Bemisia tabaci [12] = test: Insecticidal activity against field-collected population of Bemisia tabaci (sweet potato whitefly) biotype B Myakka (F2) eggs in cotton seedlings cut stem assessed as mortality measured after 14 days by stabilization treatment based systemic uptake bioassay
Bemisia tabaci [13] = test: Insecticidal activity against field-collected population of Bemisia tabaci (sweet potato whitefly) biotype B Homestead #1 (F2-F3) eggs in cotton seedlings cut stem assessed as mortality measured after 14 days by stabilization treatment based systemic uptake bioassay

Work on CNC(=O)c1cc(C#N)cc(C)c1NC(=O)c1cc(Br)nn1-c1ncccc1Cl [CYANTRANILIPROLE] yielded a RatioLC50 (Bemisia tabaci [1]) of 0.752, a RatioLC50 (Bemisia tabaci [2]) of 1.207 and a RatioLC50 (Bemisia tabaci [3]) of 1.174. For the same compound, the LC50 (Bemisia tabaci [4]) was 0.049 mgAi/L, the LC50 (Bemisia tabaci [5]) was 0.037 mgAi/L and the LC50 (Bemisia tabaci [6]) was 0.059 mgAi/L. The LC50 (Bemisia tabaci [7]) was 0.058 mgAi/L, the LC50 (Bemisia tabaci [8]) was 0.033 mgAi/L and the LC50 (Bemisia tabaci [9]) was 0.023 mgAi/L. The LC50 (Bemisia tabaci [10]) was 0.034 mgAi/L, the LC50 (Bemisia tabaci [11]) was 0.015 mgAi/L and the LC50 (Bemisia tabaci [12]) was 0.023 mgAi/L. It also gave an LC50 (Bemisia tabaci [13]) of 0.013 mgAi/L.
